Experimental findings from patent US20240270821A1, “GIP/GLP1/GCG TRI-RECEPTOR AGONISTS AND USES THEREOF” (priority 2023, published 2024) are described below.

Where two headings read alike, the source gives them in different places. Starred links: 1 amine or outer side, 2 acyl side, 3 side chain; linkers in the order of their positions; H or OH if unused. Non-standard residues stand in square brackets, D forms with d. Residues, ends and D or L forms follow the SMILES beside them. Groups on a side chain read outwards from the residue. No end group written: not given here. *: point of attachment. C20 diacid = O=C(O)CCCCCCCCCCCCCCCCCCC(=O)*; C18 diacid = O=C(O)CCCCCCCCCCCCCCCCC(=O)*; αMePhe(2-F) = C[C@](N)(Cc1ccccc1F)C(=O)O; γGlu = O=C(O)[C@H](CCC(=O)[*:2])N[*:1]; αMe4Pal = C[C@](N)(Cc1ccncc1)C(=O)O; αMeY = C[C@](N)(Cc1ccc(O)cc1)C(=O)O; 4Pal = N[C@@H](Cc1ccncc1)C(=O)O; αMeL = CC(C)C[C@](C)(N)C(=O)O; αMeS = C[C@](N)(CO)C(=O)O; Orn = NCCC[C@H](N)C(=O)O; AEEA = NCCOCCOCC(=O)O; Aib = CC(C)(N)C(=O)O

By EC50 is commonly meant the concentration needed to bring the measured effect to its halfway point.

What all share (assay type): cell-based
The target of one assay is hGcgR (Homo sapiens, UniProt P47871). Kind of assay: Functional cAMP activation in the presence of 0.1% casein (no HSA). The following applies: read-out: Relative cAMP EC50, hGcgR.
hGcgR, sequence (P47871 26-477): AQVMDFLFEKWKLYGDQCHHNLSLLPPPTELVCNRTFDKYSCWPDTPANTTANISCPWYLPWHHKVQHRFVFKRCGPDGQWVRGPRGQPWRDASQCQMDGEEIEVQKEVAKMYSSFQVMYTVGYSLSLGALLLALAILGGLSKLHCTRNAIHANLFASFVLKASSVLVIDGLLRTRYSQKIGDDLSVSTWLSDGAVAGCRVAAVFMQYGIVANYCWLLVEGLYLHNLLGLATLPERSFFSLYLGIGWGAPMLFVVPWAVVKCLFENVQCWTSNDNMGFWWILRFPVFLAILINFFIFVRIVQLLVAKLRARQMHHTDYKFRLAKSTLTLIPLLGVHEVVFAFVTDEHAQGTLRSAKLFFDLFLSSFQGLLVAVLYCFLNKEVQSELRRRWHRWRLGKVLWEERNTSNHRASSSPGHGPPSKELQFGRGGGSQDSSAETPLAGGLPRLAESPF
The target in assay [1] is T1, hGLP-1R (Homo sapiens, UniProt P43220). The assay is described as above. The following applies: read-out: Relative cAMP EC50, hGLP-1R.
T1 sequence (P43220 24-463): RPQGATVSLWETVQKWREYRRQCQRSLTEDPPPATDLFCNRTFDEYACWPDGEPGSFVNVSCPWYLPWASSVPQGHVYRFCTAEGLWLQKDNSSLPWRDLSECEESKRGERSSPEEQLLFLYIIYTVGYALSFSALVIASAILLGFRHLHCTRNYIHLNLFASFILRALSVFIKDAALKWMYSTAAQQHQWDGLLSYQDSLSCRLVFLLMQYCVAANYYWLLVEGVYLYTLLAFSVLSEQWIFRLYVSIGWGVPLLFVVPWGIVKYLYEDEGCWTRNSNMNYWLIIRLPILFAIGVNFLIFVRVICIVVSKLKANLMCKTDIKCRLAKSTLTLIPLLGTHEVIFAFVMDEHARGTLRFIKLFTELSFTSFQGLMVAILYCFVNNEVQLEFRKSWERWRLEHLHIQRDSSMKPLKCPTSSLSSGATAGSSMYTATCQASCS
For assay [2], the target named is T2, hGIPR (Homo sapiens, UniProt P48546).
T2 sequence (P48546 22-466): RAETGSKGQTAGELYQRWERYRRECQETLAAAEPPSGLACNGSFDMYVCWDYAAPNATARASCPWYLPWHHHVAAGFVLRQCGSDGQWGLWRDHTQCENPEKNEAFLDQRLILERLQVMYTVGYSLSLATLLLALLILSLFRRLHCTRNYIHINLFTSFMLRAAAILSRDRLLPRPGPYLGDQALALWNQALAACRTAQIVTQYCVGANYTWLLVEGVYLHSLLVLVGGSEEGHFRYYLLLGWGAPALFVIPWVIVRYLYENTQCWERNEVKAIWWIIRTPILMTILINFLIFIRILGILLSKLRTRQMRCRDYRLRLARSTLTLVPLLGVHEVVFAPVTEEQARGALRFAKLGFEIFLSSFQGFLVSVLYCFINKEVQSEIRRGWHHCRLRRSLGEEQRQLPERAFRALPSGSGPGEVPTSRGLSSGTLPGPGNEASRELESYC
Kind of assay: Functional cAMP activity in the presence of 1% HSA. As to conditions: read-out: cAMP Rel EC50, hGIPR.

The target of assay [3] is T2, hGIPR. Kind of assay: Functional cAMP activation in the presence of 0.1% casein (no HSA). As to conditions: read-out: Relative cAMP EC50, hGIPR.
The target of the next assay is human GcgR (Homo sapiens, UniProt P47871). Kind of assay: Functional cAMP activity in the presence of 1% HSA. As to conditions: read-out: cAMP Rel EC50, hGcgR.
human GcgR, sequence (P47871 26-477): as the sequence (P47871 26-477) above
Assay [4] addresses T1, hGLP-1R. Kind of assay: Functional cAMP activity in the presence of 1% HSA. As to conditions: read-out: cAMP Rel EC50, hGLP-1R.
[5] abbreviates: in the presence of 0.1% casein (no HSA), geometric mean.
[6] abbreviates: 0.1% casein, no HSA, geometric mean.
[7] abbreviates: HEK-293 clonal cell line, in the presence of 1% HSA, geometric mean of relative EC50.
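For Relative cAMP EC50, hGIPR in this document: intracellular cAMP rise after 30 min at 37 °C read by HTRF against a standard curve, scaled between buffer alone (0%) and top control ligand concentration (100%), four-parameter fit.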
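For Relative cAMP EC50, hGLP-1R in this document: intracellular cAMP rise after 30 min at 37 °C read by HTRF, normalized between buffer only (0%) and maximal control ligand (100%), four-parameter variable-slope fit.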
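For Relative cAMP EC50, hGcgR in this document: intracellular cAMP rise after 30 min at 37 °C, read by HTRF against a cAMP standard curve, scaled from buffer only (0%) to maximal control ligand response (100%).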

As for “H-Y[Aib]QGTFTSD[4Pal]SQ[αMeL]LD[Orn]K([γGlu-γGlu-C18 diacid])AQ[αMe4Pal]AFIE[αMeY]LIA[Aib]GPSSGEPPPSGSEE-NH2 [Example 1094]”, the EC50 at hGcgR (setting [5]) was determined as 5.84 nM; at hGLP-1R [1] (setting [5]), 0.623 nM; on hGIPR [2], 5.86 nM; on hGIPR [3] (setting [5]), 0.0515 nM; on human GcgR, 831 nM; on hGLP-1R [4] it was 64.4 nM.

Consider “H-Y[Aib]QGT[αMePhe(2-F)]TSD[4Pal][αMeS]I[αMeL]LD[Orn]K([γGlu-γGlu-C18 diacid])AQ[αMe4Pal]EFI[dE][αMeY]LIEGGPSSGAPPPSGGGEEE-NH2 [Example 1219]”, for which the EC50 at hGcgR (setting [6]) stood at 1.64 nM; at hGLP-1R [1] (setting [6]), 0.624 nM; at hGIPR [2], 0.629 nM; on hGIPR [3] (setting [6]), 0.0101 nM; at human GcgR, 168 nM; at hGLP-1R [4] it was 46.8 nM.

Regarding “H-Y[Aib]QGTFTSDYSI[αMeL]LDKIAAK([AEEA-AEEA-γGlu-C20 diacid])QFVEYLIAGGPSSGEPPPSEG-NH2 [Example 312]”, the EC50 at hGcgR (setting [5]) was found to be 7.5 nM; on hGLP-1R [1] (setting [5]), 2.66 nM; on hGIPR [2], 97.7 nM; at hGIPR [3] (setting [5]) it was 0.504 nM; at human GcgR, 4070 nM; on hGLP-1R [4], 589 nM.

“H-Y[Aib]QGT[αMePhe(2-F)]TSD[4Pal][αMeS]I[αMeL]LD[Orn]K([AEEA-γGlu-C18 diacid])AQ[αMe4Pal]EFI[dE][αMeY]LVEGGPSSGAPPPGGE-NH2 [Example 1154]”: the EC50 at hGcgR (setting [5]) was 6.42 nM; at hGLP-1R [1] (setting [5]), 0.344 nM; at hGIPR [2], 0.954 nM; at hGIPR [3] (setting [5]), 0.00879 nM; on human GcgR, 320 nM; on hGLP-1R [4], 44.5 nM.

Consider “Y[Aib]QGTFTSD[4Pal]SQ[αMeL]LD[Orn]K([dE-γGlu-C18 diacid])AQ[αMe4Pal]AFIEYLIA[Aib]GPSSGEPPPSGSEE-NH2 [Example 1101]”, for which the EC50 at hGcgR (setting [5]) stood at 4.72 nM; at hGLP-1R [1] (setting [5]) it was 1.75 nM; on hGIPR [2], 6.31 nM; at hGIPR [3] (setting [5]), 0.0592 nM; at human GcgR, 827 nM; on hGLP-1R [4], 246 nM.

In the case of “Y[Aib]QGT[αMePhe(2-F)]TSD[4Pal][αMeS]I[αMeL]LD[Orn]K([γGlu-γGlu-C18 diacid])AQ[Aib][Orn]FI[dE][αMeY]LQEGGPSSGEPPPEGGEE-NH2 [Example 586]”, the EC50 came out at 4.58 nM at hGcgR; 0.593 nM at hGLP-1R [1]; 2.46 nM on hGIPR [2]; 0.0461 nM on hGIPR [3]; 302 nM on human GcgR; 29.1 nM on hGLP-1R [4].

For the compound `CC[C@H](C)[C@H](NC(=O)[C@H](Cc1ccccc1)NC(=O)[C@H](CCCN)NC(=O)C(C)(C)NC(=O)[C@H](CCC(N)=O)NC(=O)[C@H](C)NC(=O)[C@H](CCCCNC(=O)CC[C@H](NC(=O)CC[C@H](NC(=O)CCCCCCCCCCCCCCCCC(=O)O)C(=O)O)C(=O)O)NC(=O)[C@H](CCCN)NC(=O)[C@H](CC(=O)O)NC(=O)[C@H](CC(C)C)NC(=O)[C@](C)(CC(C)C)NC(=O)[C@@H](NC(=O)[C@](C)(CO)NC(=O)[C@H](Cc1ccncc1)NC(=O)[C@H](CC(=O)O)NC(=O)[C@H](CO)NC(=O)[C@@H](NC(=O)[C@](C)(Cc1ccccc1F)NC(=O)[C@@H](NC(=O)CNC(=O)[C@H](CCC(N)=O)NC(=O)C(C)(C)NC(=O)[C@@H](N)Cc1ccc(O)cc1)[C@@H](C)O)[C@@H](C)O)[C@@H](C)CC)C(=O)N[C@H](CCC(=O)O)C(=O)N[C@@](C)(Cc1ccc(O)cc1)C(=O)N[C@@H](CC(C)C)C(=O)N[C@@H](CCC(N)=O)C(=O)N[C@@H](CCC(=O)O)C(=O)NCC(=O)NCC(=O)N1CCC[C@H]1C(=O)N[C@@H](CO)C(=O)N[C@@H](CO)C(=O)NCC(=O)N[C@@H](CCC(=O)O)C(=O)N1CCC[C@H]1C(=O)N1CCC[C@H]1C(=O)N1CCC[C@H]1C(=O)N[C@@H](CCC(=O)O)C(N)=O` [Example 439] (H-Y[Aib]QGT[αMePhe(2-F)]TSD[4Pal][αMeS]I[αMeL]LD[Orn]K([γGlu-γGlu-C18 diacid])AQ[Aib][Orn]FI[dE][αMeY]LQEGGPSSGEPPPE-NH2), the EC50 on hGcgR is 4.38 nM; at hGLP-1R [1], 0.293 nM; at hGIPR [2] it was 14.6 nM; on hGIPR [3], 0.0634 nM; at human GcgR, 165 nM; at hGLP-1R [4] it was 15.1 nM.

Turning to “Y[Aib]QGTFTSD[4Pal]SQ[αMeL]LDKK([dE-γGlu-C18 diacid])AQ[αMe4Pal]AFIEYLIE[Aib]GPSSGAPPPSGSEE-NH2 [Example 928]”, the EC50 at hGcgR (setting [5]) amounted to 6.85 nM; at hGLP-1R [1] (setting [5]) it was 3.58 nM; on hGIPR [2], 15.1 nM; on hGIPR [3] (setting [5]), 0.0883 nM; at human GcgR it was 1090 nM; on hGLP-1R [4] it was 604 nM.

As for “Y[Aib]QGTFTSD[4Pal]SQ[αMeL]LDKK([γGlu-γGlu-C18 diacid])AQ[αMe4Pal]AFIE[αMe4Pal]LIE[Aib]GPSSGAPPPSGSEE-NH2 [Example 1122]”, the EC50 came out at 10.3 nM at hGcgR (setting [5]); 5.66 nM on hGLP-1R [1] (setting [5]); 4.54 nM on hGIPR [2] (setting [7]); 0.109 nM on hGIPR [3] (setting [5]); 474 nM at human GcgR (setting [7]); 177 nM on hGLP-1R [4] (setting [7]).

On to “H-Y[Aib]QGT[αMePhe(2-F)]TSD[4Pal][αMeS]I[αMeL]LD[Orn][Orn]([AEEA-γGlu-C18 diacid])AQ[αMe4Pal]EFI[dE][αMeY]LIEGGPSSGAPPPSGS-NH2 [Example 1211]”, for which the EC50 on hGcgR (setting [6]) stood at 1.45 nM; at hGLP-1R [1] (setting [6]) it was 0.276 nM; on hGIPR [2] it was 0.489 nM; at hGIPR [3] (setting [6]), 0.00592 nM; on human GcgR it was 211 nM; at hGLP-1R [4], 33.2 nM.

Take “H-Y[Aib]QGT[αMePhe(2-F)]TSD[4Pal]SI[αMeL]LD[Orn]K([AEEA-γGlu-C18 diacid])AQ[αMe4Pal][Orn]FI[dE][αMeY]LIEGGPSSGDPPPEGTE-NH2 [Example 731]”: the EC50 on hGcgR was 2.35 nM; at hGLP-1R [1] it was 0.267 nM; at hGIPR [2] it was 1.27 nM; at hGIPR [3], 0.0117 nM; on human GcgR, 291 nM; on hGLP-1R [4], 27.4 nM.

Regarding “Y[Aib]QGT[αMePhe(2-F)]TSD[4Pal][αMeS]I[αMeL]LD[Orn]K([Glu-γGlu-C18 diacid])AQ[Aib][Orn]FI[dE][αMeY]LSEGGPSSGEPPPSGTEE-NH2 [Example 564]”, the EC50 is 10.2 nM on hGcgR; 1.33 nM on hGLP-1R [1]; 10.8 nM at hGIPR [2]; 0.176 nM on hGIPR [3]; 667 nM on human GcgR; 101 nM on hGLP-1R [4].

For “H-Y[Aib]QGT[αMePhe(2-F)]TSD[4Pal][αMeS]I[αMeL]LD[Orn]K([γGlu-γGlu-C18 diacid])AQ[Aib][Orn]FI[dE][αMeY]LQEGGPSSGEPPPSGTEEE-NH2 [Example 573]”, the EC50 at hGcgR turned out to be 4.02 nM; at hGLP-1R [1] it was 0.416 nM; on hGIPR [2], 3.15 nM; on hGIPR [3], 0.0342 nM; on human GcgR, 388 nM; at hGLP-1R [4] it was 31.6 nM.
